Results: patent US4921797A, “C-terminal alpha-amidating enzyme and process for production and use thereof” (Hisayuki Matsuo, priority 1986, dated 1990)
Square brackets hold non-standard residues; d marks the D form. Ends that are not written are not given here.

Assays:
Assay type in all cases: biochemical
[1] = target: T1, C-terminal α-amidating enzyme AE-I (Xenopus laevis, UniProt P08478); assay: Effect of substances on enzyme activity of AE-I
T1 construct: C-terminal α-amidating enzymes of the present invention can be extracted from the skin of Xenopus laevis; from tissue; host or cells: Xenopus laevis skin
T1 sequence (P08478 37-400 isoform P08478-2 limits assumed): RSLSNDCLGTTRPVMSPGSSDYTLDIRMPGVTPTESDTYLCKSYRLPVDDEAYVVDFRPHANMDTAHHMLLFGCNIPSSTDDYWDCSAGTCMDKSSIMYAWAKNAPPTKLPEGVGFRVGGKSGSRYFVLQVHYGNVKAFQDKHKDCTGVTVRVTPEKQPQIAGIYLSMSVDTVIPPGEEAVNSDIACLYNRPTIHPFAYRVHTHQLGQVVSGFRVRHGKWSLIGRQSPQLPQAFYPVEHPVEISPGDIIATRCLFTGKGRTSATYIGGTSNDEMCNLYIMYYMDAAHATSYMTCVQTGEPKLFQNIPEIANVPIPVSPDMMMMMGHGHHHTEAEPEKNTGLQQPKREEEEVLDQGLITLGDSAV
Experimental: C-terminal α-amidating enzyme of the present invention is assayed using synthetic peptide [^125 I]-Ac-Tyr-Phe-Gly as a substitute according to the following procedure. [^125 I]-Ac-Tyr-Phe-Gly (1 pmole, 70,000-150,000 cpm) was incubated with an enzyme preparation, in a final volume of 250 μl containing 0.2M Tris-HCl buffer (pH 7.0), 2 μM CuSo4, 0.25 mM ascorbic acid, 25 μg catalase (Boehringer), 0.1% Lubrol (PX type, Nakarai Chemicals). The reaction mixture was kept at 37° C. for 1 to 4 hours. Then 0.75 ml of 1M Tris-HCl buffer (pH 7.0) and 2 ml of the organic phase of an ethyl acetate/water mixture was added. Two phases were mixed vigorously on a Vortex mixer. After centrifugation at 3000 rpm for 3 min, the organic phase thus separated was transferred to another test tube. The radioactivity in organic and aqueous layers was each measured by a gamma scintillation counter. […] The yield of conversion was calculated from the ratio of the radioactivity in ethyl acetate phase to the total radioactivity. In this assay, one unit is defined as an amount of enzyme which converts 50% of added substrate [^125 I]-Ac-Try-Phe-Gly to [^125 I]-Ac-Tyr-Phe-NH2.

[2] = target: T1, C-terminal α-amidating enzyme AE-I; assay: Conversion of substrate peptides to C-terminal α-amidated products by AE-I (reverse-phase HPLC); conditions: same procedure as Example 3; rates Tyr-Phe-Gly>Ac-Tyr-Phe-Gly>D-Tyr-Val-Gly>D-Tyr-Gly-Gly
Experimental: The 0.1 μg of the enzyme preparation AE-I prepared in Example 1 was incubated with 4 nmoles of Tyr-Gly-Gly-Phe-Met-Arg-Arg-Val-Gly as a substrate in 250 μl of a 0.2M Tris-HCl buffer (pH 7.0) containing 2 μM CuSO4, 0.25 mM ascorbic acid, 25 μg catalase, and 0.1% Lubrol, at 37° C. for 24 hours. After the reaction was terminated by the addition of 250 μl of 1% trifluoroacetic acid, the reaction mixture was applied to a TSK ODS-120A column (0.4×25 cm; Toyosoda), and elution was carried out using a linear gradient of 12 to 60% CH3 CN in 0.1% trifluoroacetic acid at a flow rate of 1.5 ml/min. The elute was analyzed for absorbance at 210 nm. FIG. 7A represents an elution pattern for a sample of the reaction mixture taken at 0 time, i.e., before the reaction, and FIG. 7B represents an elution pattern for a sample of the reaction mixture taken 24 hours after the reaction has started. […] In FIG. 7, arrows b and a represent positions at which the peaks of authentic substrate and authentic adrenorphin Tyr-Gly-Gly-Phe-Met-Arg-Arg-Val-NH2 respectively appear under the same condition. Adrenorphin corresponds to a peptide wherein C-terminal glycine has been converted to α-amide. Since the positions 1 and 2 match the positions a and b respectively, it is reasonable to assume that the reaction product corresponding to peak 1 is adrenorphin. This means that the enzyme of the present invention amidated the substrate at its C-terminal. To confirm this conclusion, the fraction 1 in FIG. 7 was hydrolyzed in 6M HCl at 110° C. for 24 hours, and the amino acid composition of the hydrolyzate was analyzed using an amino acid analyzer. Moreover, the presence of the C-terminal amide group in the fraction 1 was analyzed by thermolysin digestion followed by thin layer chromatography. All of the results confirmed that the reaction product is adrenorphin.
The same procedure as described in Example 3 was repeated except that, in place of Tyr-Gly-Gly-Phe-Met-Arg-Arg-Val-Gly(FIG. 8Δ), following substrates were used: […]

[3] = target: T1, C-terminal α-amidating enzyme AE-I; assay: Kinetic constants of AE-I from Lineweaver-Burk plots; conditions: standard conditions
Experimental: C-terminal α-amidating enzyme of the present invention is assayed using synthetic peptide [^125 I]-Ac-Tyr-Phe-Gly as a substitute according to the following procedure. [^125 I]-Ac-Tyr-Phe-Gly (1 pmole, 70,000-150,000 cpm) was incubated with an enzyme preparation, in a final volume of 250 μl containing 0.2M Tris-HCl buffer (pH 7.0), 2 μM CuSo4, 0.25 mM ascorbic acid, 25 μg catalase (Boehringer), 0.1% Lubrol (PX type, Nakarai Chemicals). The reaction mixture was kept at 37° C. for 1 to 4 hours. Then 0.75 ml of 1M Tris-HCl buffer (pH 7.0) and 2 ml of the organic phase of an ethyl acetate/water mixture was added. Two phases were mixed vigorously on a Vortex mixer. After centrifugation at 3000 rpm for 3 min, the organic phase thus separated was transferred to another test tube. The radioactivity in organic and aqueous layers was each measured by a gamma scintillation counter. Under the conditions described above, over 98% of radioactivity of the authentic [^125 I]-Ac-Tyr-Phe-Gly was retained in an aqueous phase and over 98% of radioactivity of the authentic [^125 I]-Ac-Tyr-Phe-NH2 was transferred to an organic phase. The yield of conversion was calculated from the ratio of the radioactivity in ethyl acetate phase to the total radioactivity. In this assay, one unit is defined as an amount of enzyme which converts 50% of added substrate [^125 I]-Ac-Try-Phe-Gly to [^125 I]-Ac-Tyr-Phe-NH2.

In the case of `O[C@H](CS)[C@H](O)CS` (racemic) [dithiothreitol], the “Effect on enzyme activity” value ([1]; 1 mM dithiothreitol) was “inhibited”.
`O=S(=O)([O-])[O-].[Cu+2]` [CuSO4] was tested, and the “Effect on enzyme activity inhibited by the thiol compound” value ([1]; additional 1.2 mM CuSO4 in presence of 1 mM dithiothreitol) was “restores the enzyme activity” and the “Effect on enzyme activity inhibited by EDTA” value ([1]; additional more than 0.12 mM CuSO4 in presence of 0.1 mM EDTA) was “restores the enzyme activity”.
In the case of `[Cu+2]` [Cu^++], the “Requirement of Cu++ cation for enzyme activity” value [1] was “essential”.
For `O=C(O)CN(CCN(CC(=O)O)CC(=O)O)CC(=O)O` [EDTA], the “Effect on enzyme activity” value ([1]; 0.1 mM EDTA) was “inhibited”.
In the case of `CCN1C(=O)C=CC1=O` [N-ethylmaleimide], the “Effect on enzyme activity inhibited by the thiol compound” value ([1]; 5 mM N-ethylmaleimide in presence of 1 mM dithiothreitol) was “restores the enzyme activity”.
In the case of Ac-Tyr-Phe-Gly, the “Conversion of substrate by AE-I (FIG. 8)” value [2] was “converted to the corresponding des-Gly peptide α-amides”, the Km [3] was 350 nM and the Vmax [3] was 1.9 nmol/µg/h.
For “Tyr-Gly-Gly-Phe-Met-Arg-Arg-Val [desamido-adrenorphin]”, the “Conversion of substrate by AE-I (FIG. 8)” value [2] was “not affected by the enzyme”.
In the case of Tyr-Phe-Gly, the “Conversion of substrate by AE-I (FIG. 8)” value [2] was “converted to the corresponding des-Gly peptide α-amides”.
For YGGFMRRVGRPE [BAM-12P], the “Conversion of substrate by AE-I (FIG. 8)” value [2] was “not affected by the enzyme”.
In the case of [dY]-Gly-Gly, the “Conversion of substrate by AE-I (FIG. 8)” value [2] was “converted to the corresponding des-Gly peptide α-amides”.
With [dY]-Val-Gly the “Conversion of substrate by AE-I (FIG. 8)” value [2] was “converted to the corresponding des-Gly peptide α-amides”.
